Read-outs that look alike come from different tables or passages of the source. Blank lines part the entries; values can stand above or below the compound they belong to.
Tests used:
[1] = test system: nucleotide pyrophosphatase activity; experiment: Nucleotide pyrophosphatase activity in mock fucosyltransferase assays; format: biochemical; details: 5 mM in standard assay cocktail
Method: ATP (5 mM) was therefore included in all assays to inhibit nucleotide pyrophosphatase activity. […] Each enzyme source was incubated for 1 to 4 h at 37° C. in 20 μl of standard assay cocktail, but in the absence of phenyl-β-D-galactoside. After the reactions were terminated, an aliquot of each was spotted on Whatman No. 3MM, fractionated by descending paper chromatography for 20 h in solvent B, and radioactivity was determined as described above. Authentic GDP-[^14C]fucose, [^14C]fucose-1-phosphate, and L-[^14C]fucose standards were chromatographed in parallel. This system separates GDP-fucose, fucose-1-phosphate, and fucose. It therefore allows quantitation of the amount of GDP-[^14C]fucose remaining at the end of the incubation, and thus provides an estimate of pyrophosphatase activity. Under the standard assay conditions, more than 97% of the GDP-[^14C]fucose initially present in each mock reaction remained unhydrolyzed and available for transglycosylation.

[2] = molecular target: T1, recombinant human (α1,2)fucosyltransferase (Homo sapiens, UniProt P19526); experiment: Apparent Michaelis constants of recombinant (α1,2)fucosyltransferase expressed in COS-1 cells; format: biochemical
T1 construct: expressed in transfected cells; host or cells: COS-1 cells, transient DEAE-dextran transfection, cell extracts
T1 sequence (P19526 1-365): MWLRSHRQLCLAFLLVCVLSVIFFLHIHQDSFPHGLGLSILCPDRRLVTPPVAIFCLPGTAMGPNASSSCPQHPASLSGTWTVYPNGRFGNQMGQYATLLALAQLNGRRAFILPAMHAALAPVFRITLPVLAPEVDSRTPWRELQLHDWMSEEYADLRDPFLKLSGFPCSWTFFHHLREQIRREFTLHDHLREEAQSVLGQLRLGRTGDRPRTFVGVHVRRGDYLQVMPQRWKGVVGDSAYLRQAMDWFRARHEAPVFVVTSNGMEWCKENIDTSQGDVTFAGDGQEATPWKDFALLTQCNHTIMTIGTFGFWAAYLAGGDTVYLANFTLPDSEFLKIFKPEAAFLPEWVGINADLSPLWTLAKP
Method: (§1) Fucosyltransferase assays were performed by a modification of the procedure reported by Chester et al. (Chester et al, Eur. J. Biochem., 69: 583-593, 1976). The standard assay contained GDP-[^14]fucose (3 μM) phenyl-β-D-galactoside (25 mM), ATP (5 mm) and the enzyme solution (1-10 μl) in 20 μl of 25 mM sodium phosphate buffer, pH 6.1. Based upon preliminary assays, amounts of added enzyme activities were adjusted to ensure that reactions were linear throughout the period of incubation (4 h for fractionated serum, 2 h for each of the other enzyme preparations). Under these conditions, less than 15% of the substrate was consumed during the incubation period. […] The final pH value of each reaction was determined with a micro pH probe. […] The concentration of GDP-fucose in this stock solution was calculated from the UV absorbance at 254 nm of an aliquot diluted in water. […] The supernatant contained virtually 100% of the radiolabelled product; this was collected, and an aliquot was used for separation and quantitation of the fucosylated product using the hydrophobic interaction chromatography method described below. […] This background acceptor “activity” was always less than 3% of the radioactivity incorporated into the phenyl-β-D-galactoside acceptor. […] Intercepts were calculated by the least squares estimation method. […]

[3] = test system: (α1,2)fucosyltransferase; experiment: (α1,2)Fucosyltransferase assay, substrate and effector tests; format: biochemical
Method: as §1

[4] = test system: monoclonal anti-H antibody; experiment: Hapten inhibition of anti-H antibody binding to mH1-12 cells (indirect immunofluorescence); parameters: species or system mouse; details: antibody preincubated with hapten, 20 mM
Method: Immunofluoroscence was performed on cells plated on 8-well tissue culture chamber slides (Lab-Tek). Cells were plated at a density of 5×10^4/well 24 h prior to analysis. Anti-H and anti-A primary antibodies were diluted in PBS containing bovine serum albumin at 2 mg/ml, to a final concentration of 10 μg/ml. Cell-bound primary antibodies were detected with FITC-conjugated goat anti-mouse IgM, diluted to 40 μg/ml in PBS containing 2 mg/ml bovine serum albumin.
Hapten Inhibition—Plated cells were washed twice with PBS, and were incubated for 30 min at 4° C. with 100 μl of diluted anti-H antibody, or with 100 μl of diluted antibody containing different oligosaccharide haptens, each at a concentration of 20 mM. The chambers were then washed twice, and 100 μl of FITC-conjugated goat anti-mouse IgM was added. After 30 min at 4° C., the chambers were washed three times with PBS, and the cells were fixed at room temperature for 10 min in 3.7% formaldehyde in PBS. The cells were washed twice with PBS, the chambers were removed, and the slide was mounted in PBS containing 25% glycerol. Cells were examined by fluorescence microscopy using a Zeiss Axiophot photomicroscope equipped with fluorescence epiillumination.

[5] = test system: α-fucosidase activity; experiment: α-Fucosidase activity in enzyme preparations; format: biochemical; details: 10 mM; fractionated human serum and mouse intestinal mucosa extracts
Method: Each enzyme preparation was also tested for α-fucosidase activity that could hydrolyze the [^14C]fucosylphenyl-β-D-galactoside product and prevent accurate determination of (α1,2)fucosyltransferase activity. Enzyme preparations were incubated with purified [^14C]fucosylphenyl-β-D-galactoside (7000 cpm, 10 pmol) in fucosyltransferase assay buffer, but in the absence of added GDP-[^14C]fucose or phenyl-β-D-galactoside. These reactions were incubated at 37° C. for various times, and were then fractionated by the Sep-Pak method to determine the amount of remaining [^14C]fucosylphenyl-β-D-galactoside. Fractionated human serum and mouse intestinal mucosa extracts each contained significant α-fucosidase activity. […] Therefore 10 mM L-fucose was included when assaying these enzyme sources. Significant amounts of α-fucosidase activity were not detected in any of the other cell extracts; product hydrolysis never exceeded 1%/h under the standard assay conditions.

[6] = molecular target: T2, blood group H (α1,2)fucosyltransferase (Homo sapiens, UniProt P19526); experiment: Apparent Km for the blood group H (α1,2)fucosyltransferase; format: biochemical; details: determined by the inventor; read-out: apparent Km for phenyl-β-D-galactoside
T2 sequence (P19526 1-365): T1 sequence (P19526 1-365)
Method: Serum was prepared from freshly drawn blood obtained from a non-Secretor individual. The blood was clotted in a glass tube at 37° C. for 1 h and was immediately fractionated by ammonium sulfate precipitation exactly as described. The 20%-40% ammonium sulfate fraction was dialyzed against 2 changes of 4 liters of water (8 h each) at 4° C. Assay of (α1,2)fucosyltransferase was done immediately. Alternatively, the fractionated serum was aliquoted and stored at −20° C. until use.
Fucosyltransferase assays were performed by a modification of the procedure reported by Chester et al. (Chester et al, Eur. J. Biochem., 69: 583-593, 1976). […] The final pH value of each reaction was determined with a micro pH probe. […] The concentration of GDP-fucose in this stock solution was calculated from the UV absorbance at 254 nm of an aliquot diluted in water. […] The supernatant contained virtually 100% of the radiolabelled product; this was collected, and an aliquot was used for separation and quantitation of the fucosylated product using the hydrophobic interaction chromatography method described below. […] This background acceptor “activity” was always less than 3% of the radioactivity incorporated into the phenyl-β-D-galactoside acceptor. […] Intercepts were calculated by the least squares estimation method.

[7] = molecular target: T3, (α1,2)fucosyltransferase found in human milk (Se locus) (Homo sapiens, UniProt Q10981); experiment: Apparent Km for the human milk (α1,2)fucosyltransferase; format: biochemical; details: human milk enzyme; read-out: apparent Km for phenyl-β-D-galactoside
T3 sequence (Q10981 29-343 limits assumed): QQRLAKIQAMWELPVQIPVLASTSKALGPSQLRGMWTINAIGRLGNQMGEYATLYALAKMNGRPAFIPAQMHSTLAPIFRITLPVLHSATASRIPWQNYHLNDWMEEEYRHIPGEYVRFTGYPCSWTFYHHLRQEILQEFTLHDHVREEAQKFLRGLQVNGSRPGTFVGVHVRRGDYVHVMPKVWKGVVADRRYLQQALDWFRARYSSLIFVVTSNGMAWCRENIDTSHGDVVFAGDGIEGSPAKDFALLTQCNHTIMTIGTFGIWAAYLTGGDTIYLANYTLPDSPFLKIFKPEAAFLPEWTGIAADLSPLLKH
Method: (α1,2)Fucosyltransferase was isolated from human milk by published procedures. Briefly, 300 ml of milk from a Se-positive donor was defatted by centrifugation and was extensively dialyzed against 20 MM sodium cacodylate, pH 6.0. This was applied to a column (2.6×115 cm) of sulfopropyl-Sephadex equilibrated in 20 mM cacodylate, pH 6.0. The column was then washed with 1 liter of 20 mM cacodylate, pH 6.0, and was eluted with a linear gradient made from 1.5 liter each of 20 mM cacodylate, pH 6.0, and 500 mM NaCl in 20 mM cacodylate, pH 6.0. Fractions (13 ml) were collected and assayed for (α1,2)fucosyltransferase activity using phenyl-β-D-galactoside acceptor as described below. […]
Fucosyltransferase assays were performed by a modification of the procedure reported by Chester et al. (Chester et al, Eur. J. Biochem., 69: 583-593, 1976). […] The final pH value of each reaction was determined with a micro pH probe. […] The concentration of GDP-fucose in this stock solution was calculated from the UV absorbance at 254 nm of an aliquot diluted in water. […] The supernatant contained virtually 100% of the radiolabelled product; this was collected, and an aliquot was used for separation and quantitation of the fucosylated product using the hydrophobic interaction chromatography method described below. […] Intercepts were calculated by the least squares estimation method.

[8] = test system: Griffonia simplicifolia isolectin I B4 (GS I-B4); experiment: Hapten inhibition of FITC-GS I-B4 staining of COS-1 cells transfected with pCDM7-αGT; format: binding; details: 50 mM raffinose
Method: COS-1 cells transfected with plasmid DNAs were harvested 48-72-hr after transfection. These were stained with either fluorescein isothiocyanate-conjugated GS I-B4 at 10 μg per ml in staining media or with fluorescein isothiocyanate-conjugated GS I-B4 that had been previously incubated with 50 mM raffinose. Cells were then subjected to analysis by fluorescence-activated cell sorting as described above.

[9] = test system: F9 teratocarcinoma cells; experiment: (α1-3)GT specific activity in retinoic acid-differentiated F9 cells; format: cell-based, mouse

Structure (SMILES): Nc1ncnc2c1ncn2[C@@H]1O[C@H](COP(=O)(O)OP(=O)(O)OP(=O)(O)O)[C@@H](O)[C@H]1O [ATP]
- inhibition of nucleotide pyrophosphatase activity [1]: Effective inhibition

Structure (SMILES): C[C@@H]1O[C@H](OP(=O)(O)OP(=O)(O)OC[C@H]2O[C@@H](n3cnc4c(=O)[nH]c(N)nc43)[C@H](O)[C@@H]2O)[C@@H](O)[C@H](O)[C@@H]1O [GDP-fucose]
- Km ([2]; COS-1 cells transfected with pH3.4, phenyl-β-D-galactoside 25 mM, read-out: apparent Km for GDP-fucose): 17.5 µM

Structure (SMILES): C[C@@H]1O[C@H](OP(=O)(O)OP(=O)(O)OC[C@H]2O[C@@H](n3cnc4c(=O)[nH]c(N)nc43)[C@H](O)[C@@H]2O)[C@@H](O)[C@H](O)[C@@H]1O [GDP-β-L-fucose]
- activity as a substrate for (α1,2)fucosyltransferase [3]: inactive

Structure (SMILES): OC[C@H]1O[C@H](OC[C@H]2O[C@H](O[C@]3(CO)O[C@H](CO)[C@@H](O)[C@@H]3O)[C@H](O)[C@@H](O)[C@@H]2O)[C@H](O)[C@@H](O)[C@H]1O [raffinose]
- inhibition of GS I-B4 staining by hapten [8]: inhibited

Structure (SMILES): CC1=C(/C=C/C(C)=C/C=C/C(C)=C/C(=O)O)C(C)(C)CCC1 [retinoic acid]
- specific activity of (α1-3)GT versus untreated F9 cells [9]: approximately 4 fold

The next lines start with results.

- inhibition of α-fucosidase activity [5]: effectively inhibited
- effect on (α1,2)fucosyltransferase activity ([3]; 10 mM, reconstruction experiments with cell extracts): does not alter the activity
Structure (SMILES): C[C@H](O)[C@@H](O)[C@@H](O)[C@H](O)C=O [L-fucose]
- inhibition of anti-H antibody binding to mH1-12 cells by hapten [4]: does not inhibit

- Km ([2]; COS-1 cells transfected with pCDM7-α(1,2)FT, GDP-[14C]fucose 3 μM, read-out: apparent Km for phenyl-β-D-galactoside): 2400 µM
- Km [6]: 3100 µM
- Km [7]: 15100 µM
Structure (SMILES): OC[C@H]1O[C@@H](Oc2ccccc2)[C@H](O)[C@@H](O)[C@H]1O [phenyl-β-D-galactoside]
